Results as given in ChEMBL document CHEMBL1201862, “PubChem BioAssay data set” (2004).
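Cells were grown in 96-well plates and exposed to each compound for 48 hours at five concentrations; endpoints were interpolated linearly between bracketing concentrations, or set to the highest concentration if not reached. Here, GI50 denotes the concentration required for 50% inhibition of growth.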 The source made the active and inactive calls. No stated cut-off is given here; in the data, active = GI50 up to about 1.1 µM and inactive = higher.

Columns and labels:
Experiment in all cases: NCI anticancer screen, dose series, 48 h
786-0 = tested on: 786-0
A549 = tested on: A549
ACHN = tested on: ACHN
CAKI-1 = tested on: CAKI-1
CCRF-CEM = tested on: CCRF-CEM
COLO 205 = tested on: COLO 205
DLD-1 = tested on: DLD-1
DMS-114 = tested on: DMS-114
EKVX = tested on: EKVX
HCC 2998 = tested on: HCC 2998
HCT-116 = tested on: HCT-116
HCT-15 = tested on: HCT-15
HL-60 = tested on: HL-60
HOP-18 = tested on: HOP-18
HOP-62 = tested on: HOP-62
HT-29 = tested on: HT-29
IGROV-1 = tested on: IGROV-1
K562 = tested on: K562
KM-20L2 = tested on: KM-20L2
KM12 = tested on: KM12
LOX IMVI = tested on: LOX IMVI
LXFL 529 = tested on: LXFL 529
M14 = tested on: M14
M19-MEL = tested on: M19-MEL
MOLT-4 = tested on: MOLT-4
Malme-3M = tested on: Malme-3M
NCI-H226 = tested on: NCI-H226
NCI-H23 = tested on: NCI-H23
NCI-H460 = tested on: NCI-H460
NCI-H522 = tested on: NCI-H522
OVCAR-3 = tested on: OVCAR-3
OVCAR-4 = tested on: OVCAR-4
OVCAR-5 = tested on: OVCAR-5
OVCAR-8 = tested on: OVCAR-8
RPMI-8226 = tested on: RPMI-8226
RXF 393 = tested on: RXF 393
RXF 631 = tested on: RXF 631
SF-268 = tested on: SF-268
SF-295 = tested on: SF-295
SF-539 = tested on: SF-539
SK-MEL-28 = tested on: SK-MEL-28
SK-MEL-5 = tested on: SK-MEL-5
SK-OV-3 = tested on: SK-OV-3
SN12C = tested on: SN12C
SNB-19 = tested on: SNB-19
SNB-75 = tested on: SNB-75
SR = tested on: SR
SW-620 = tested on: SW-620
TK-10 = tested on: TK-10
U-251 = tested on: U-251
UACC-257 = tested on: UACC-257
UACC-62 = tested on: UACC-62
UO-31 = tested on: UO-31
XF498 = tested on: XF498

With `Cc1ccc(C(=O)CC2=Nc3nnc(CCCCCCCc4nnc5n4C(=O)C(CC(=O)c4ccc(C)cc4)=N5)n3C2=O)cc1` the GI50 (786-0) was > 100 µM (inactive), the GI50 (A549) was > 100 µM (inactive) and the GI50 (ACHN) was > 100 µM (inactive). For the same compound, the GI50 (CAKI-1) was > 100 µM (inactive), the GI50 (CCRF-CEM) was > 100 µM (inactive) and the GI50 (COLO 205) was > 100 µM (inactive). For the same compound, the GI50 (DLD-1) was > 100 µM (inactive), the GI50 (DMS-114) was > 100 µM (inactive) and the GI50 (EKVX) was > 100 µM (inactive). The GI50 (HCC 2998) was > 100 µM (inactive), the GI50 (HCT-116) was > 100 µM (inactive) and the GI50 (HCT-15) was > 100 µM. The GI50 (HL-60) was > 100 µM (inactive), the GI50 (HOP-18) was > 100 µM (inactive) and the GI50 (HOP-62) was > 100 µM (inactive). For the same compound, the GI50 (HT-29) was > 100 µM (inactive), the GI50 (IGROV-1) was > 100 µM (inactive) and the GI50 (K562) was > 100 µM (inactive). For the same compound, the GI50 (KM-20L2) was > 100 µM (inactive), the GI50 (KM12) was > 100 µM (inactive) and the GI50 (LOX IMVI) was > 100 µM (inactive). For the same compound, the GI50 (LXFL 529) was > 100 µM (inactive), the GI50 (M14) was > 100 µM (inactive) and the GI50 (M19-MEL) was > 100 µM (inactive). The GI50 (MOLT-4) was > 100 µM (inactive), the GI50 (Malme-3M) was > 100 µM (inactive) and the GI50 (NCI-H226) was > 100 µM (inactive). The GI50 (NCI-H23) was > 100 µM (inactive), the GI50 (NCI-H460) was > 100 µM (inactive) and the GI50 (NCI-H522) was > 100 µM (inactive). The GI50 (OVCAR-3) was > 100 µM (inactive), the GI50 (OVCAR-4) was > 100 µM (inactive) and the GI50 (OVCAR-5) was > 100 µM (inactive). For the same compound, the GI50 (OVCAR-8) was > 100 µM (inactive), the GI50 (RPMI-8226) was > 100 µM (inactive) and the GI50 (RXF 393) was > 100 µM (inactive). For the same compound, the GI50 (RXF 631) was > 100 µM (inactive), the GI50 (SF-268) was > 100 µM (inactive) and the GI50 (SF-295) was > 100 µM (inactive). The GI50 (SF-539) was > 100 µM (inactive), the GI50 (SK-MEL-28) was > 100 µM (inactive) and the GI50 (SK-MEL-5) was > 100 µM (inactive). The GI50 (SK-OV-3) was > 100 µM (inactive), the GI50 (SN12C) was > 100 µM (inactive) and the GI50 (SNB-19) was > 100 µM (inactive). The GI50 (SNB-75) was 24.2 µM (inactive), the GI50 (SR) was > 100 µM (inactive) and the GI50 (SW-620) was > 100 µM (inactive). The GI50 (TK-10) was > 100 µM (inactive), the GI50 (U-251) was > 100 µM (inactive) and the GI50 (UACC-257) was > 100 µM (inactive). For the same compound, the GI50 (UACC-62) was > 100 µM (inactive), the GI50 (UO-31) was > 100 µM (inactive) and the GI50 (XF498) was > 100 µM (inactive).
